In patent US20090093517A1, “BIS1,2,3,4-TETRAHYDROISOQUINOLINE DERIVATIVES AND THEIR USES AS PHARMACEUTICALS” (UNIVERSITE DE LIEGE, priority 2006, published 2009):
Structures can show the parent of a compound that is named as a salt.

System: apamin-sensitive sites of the SK channels
Experiment: Competition binding between 125I-apamin and bis-tetrahydroisoquinoline derivatives on rat cortical synaptosomes
Details: for % of 125I-apamin displaced at 10 μM: 10 μM compound, ±10 pM 125I-apamin, rat cortical synaptosomes, 1 h at 0° C.; for Ki / potential to interact with apamin-sensitive sites compared with NML: comparison in words with N-Methyl-Laudanosine; for Ki: separated stereoisomers, rat cortical apamin sensitive sites, 125I-apamin
Experimental: These experiments are used to evaluate the potency of the bis-tetrahydroisoquinoline derivatives to interact with the apamin-sensitive sites of the SK channels, the selected target for which a blockade is expected to be useful in the treatment of Alzheimer's disease, Parkinson's disease, schizophrenia, cognitive dysfunction, or depression. Two reference compounds are also tested for comparison
Rats (male Wistar, ±250 g) were killed by decapitation and the brains were quickly removed and kept on ice during dissection. Crude cortex was dispersed in 0.32 M sucrose by using a Pottero homogenizer. After a first centrifugation at 1500×g for 10 min, the supernatant was centrifuged at 25000×g for 10 min. The resulting pellet was dispersed in 5 mL 0.32 M sucrose to be aliquoted. Protein concentration was determined by the method of Hartree with bovine serum albumin as a standard.^36
The buffer consisted of a 10 mM Tris-HCl (pH 7.5) solution containing 5.4 mM KCl and 0.1% bovine serum albumin. The radioligand was ^125I-apamin (Perkin-Elmer, Specific activity 81.4 TBq mmol^−1). Glass fibre filters (Whatman GF/C) used in these experiments were coated for 1 h in 0.5% polyethylenimine and then washed with 2.5 mL of the ice-cold buffer just before use. Binding experiments were always terminated as follows. Aliquots were filtered under reduced pressure through Whatman filters. Filters were rapidly washed twice with 2.5 mL of buffer. The radioactivity remaining on the filter was evaluated with a Packard Tri-Carb 1600TR liquid scintillation analyser with an efficacy of 69%. ^125I-apamin binding to the filters was also estimated in the absence of synaptosomes. This binding was also substracted from the total binding. Curve fitting was carried out using GraphPad Prism.
Saturation Binding Experiments—Synaptosomes (0.2 mg of protein/mL) were incubated with increasing concentrations of ^125I-apamin (25 μL) with 975 μL of incubation buffer for 1 h at 0° C. Samples were then filtered on Whatman GF/C filter and the radioactivity was measured as described above. Non specific binding was determined in parallel experiments in the presence of an excess of unlabeled apamin (0.1 μM) and subtracted from the total binding to obtain the specific binding.
Competition Experiments between ^125I-apamin and Bis-tetrahydroisoquinoline derivatives—Synaptosomes (0.2 mg of protein/mL) were incubated for 1 h at 0° C. with ±10 pM of ^125I-apamin (25 μL) and nine concentrations of bis-tetrahydroisoquinoline derivatives (10^−4 to 10^−7 M). Non specific binding was determined in the presence of an excess of unlabeled apamin (0.1 μM). Samples were then filtered on Whatman filter and the radioactivity was measured as described above.

SMILES: CN1CCc2ccccc2C1CCCC1c2ccccc2CCN1C.Cl (stereo not shown) [Compound 4a, 1,3-bis[1-(2-methyl-1,2,3,4-tetrahydrolisoquinolyl)]-propane hydrochloride]
- % of 125I-apamin displaced at 10 μM: 13%

SMILES: CN1CCc2ccccc2C1CCCCC1c2ccccc2CCN1C.Cl (stereo not shown) [Compound 4b, 1,4-bis[1-(2-methyl-1,2,3,4-tetrahydroisoquinolyl)]-butane hydrochloride]
- % of 125I-apamin displaced at 10 μM: 16%

SMILES: CN1CCc2ccccc2C1CCCCCC1c2ccccc2CCN1C.Cl (stereo not shown) [Compound 4c, 1,5-bis[1-(2-methyl-1,2,3,4-tetrahydroisoquinolyl)]-pentane hydrochloride]
- % of 125I-apamin displaced at 10 μM: 9%

SMILES: COc1cc2c(cc1OC)C(CCCC1c3cc(OC)c(OC)cc3CCN1C)N(C)CC2 (stereo not shown) [Compound 4d E1, 1,3-bis[1-(6,7-dimethoxy-2-methyl-1,2,3,4-tetrahydroisoquinolyl)]-propane hydrochloride]
- Ki / potential to interact with apamin-sensitive sites compared with NML: Ki superior to NML
- Ki compared with dequalinium (comparison in words with dequalinium): Ki quite similar to dequalinium
- Ki (listed as 4d E1, hydrochloride): 293 ± 22 nM

SMILES: COc1cc2c(cc1OC)C(CCCC1c3cc(OC)c(OC)cc3CCN1C)N(C)CC2 (stereo not shown) [Compound 4d E2, 1,3-bis[1-(6,7-dimethoxy-2-methyl-1,2,3,4-tetrahydroisoquinolyl)]-propane hydrochloride]
- Ki (listed as 4d E2, hydrochloride): 1880 ± 105 nM

SMILES: COc1cc2c(cc1OC)[C@@H](CCC[C@H]1c3cc(OC)c(OC)cc3CCN1C)N(C)CC2 [Compound 4d MESO, 1,3-bis[1-(6,7-dimethoxy-2-methyl-1,2,3,4-tetrahydroisoquinolyl)]-propane hydrochloride]
- Ki: 1420 ± 116 nM

SMILES: COc1cc2c(cc1OC)C(CCCC1c3cc(OC)c(OC)cc3CCN1C)N(C)CC2.Cl (stereo not shown) [Compound 4d, 1,3-bis[1-(6,7-dimethoxy-2-methyl-1,2,3,4-tetrahydroisoquinolyl)]-propane hydrochloride]
- % of 125I-apamin displaced at 10 μM: 82%

SMILES: COc1cc2c(cc1OC)C(CCCCC1c3cc(OC)c(OC)cc3CCN1C)N(C)CC2.Cl (stereo not shown) [Compound 4e E1, 1,4-bis[1-(6,7-dimethoxy-2-methyl-1,2,3,4-tetrahydroisoquinolyl)]-butane hydrochloride]
- Ki / potential to interact with apamin-sensitive sites compared with NML: Ki superior to NML
- Ki (listed as 4e E1, hydrochloride): 588 ± 72 nM

SMILES: COc1cc2c(cc1OC)C(CCCCC1c3cc(OC)c(OC)cc3CCN1C)N(C)CC2 (stereo not shown) [Compound 4e E2, 1,4-bis[1-(6,7-dimethoxy-2-methyl-1,2,3,4-tetrahydroisoquinolyl)]-butane hydrochloride]
- Ki (listed as 4e E2, hydrochloride): 1200 ± 114 nM

SMILES: COc1cc2c(cc1OC)C(CCCCC1c3cc(OC)c(OC)cc3CCN1C)N(C)CC2 (stereo not drawn) [Compound 4e MESO, 1,4-bis[1-(6,7-dimethoxy-2-methyl-1,2,3,4-tetrahydroisoquinolyl)]-butane hydrochloride]
- Ki (listed as 4e MESO, hydrochloride): 1070 ± 124 nM

SMILES: COc1cc2c(cc1OC)C(CCCCC1c3cc(OC)c(OC)cc3CCN1C)N(C)CC2.Cl (stereo not shown) [Compound 4e, 1,4-bis[1-(6,7-dimethoxy-2-methyl-1,2,3,4-tetrahydroisoquinolyl)]-butane hydrochloride]
- % of 125I-apamin displaced at 10 μM: 72%

SMILES: COc1cc2c(cc1OC)C(CCCCCC1c3cc(OC)c(OC)cc3CCN1C)N(C)CC2.Cl (stereo not shown) [Compound 4f E1, 1,5-bis[1-(6,7-dimethoxy-2-methyl-1,2,3,4-tetrahydroisoquinolyl)]-pentane hydrochloride]
- Ki / potential to interact with apamin-sensitive sites compared with NML: Ki superior to NML
- Ki (listed as 4f E1, hydrochloride): 592 ± 14 nM

SMILES: COc1cc2c(cc1OC)C(CCCCCC1c3cc(OC)c(OC)cc3CCN1C)N(C)CC2 (stereo not shown) [Compound 4f E2, 1,5-bis[1-(6,7-dimethoxy-2-methyl-1,2,3,4-tetrahydroisoquinolyl)]-pentane hydrochloride]
- Ki (listed as 4f E2, hydrochloride): 1300 ± 39 nM

SMILES: COc1cc2c(cc1OC)C(CCCCCC1c3cc(OC)c(OC)cc3CCN1C)N(C)CC2 (stereo not drawn) [Compound 4f MESO, 1,5-bis[1-(6,7-dimethoxy-2-methyl-1,2,3,4-tetrahydroisoquinolyl)]-pentane hydrochloride]
- Ki (listed as 4f MESO, hydrochloride): 731 ± 63 nM

SMILES: COc1cc2c(cc1OC)C(CCCCCC1c3cc(OC)c(OC)cc3CCN1C)N(C)CC2.Cl (stereo not shown) [Compound 4f, 1,5-bis[1-(6,7-dimethoxy-2-methyl-1,2,3,4-tetrahydroisoquinolyl)]-pentane hydrochloride]
- % of 125I-apamin displaced at 10 μM: 78%

SMILES: COc1cc2c(c(OC)c1OC)C(CCCC1c3c(cc(OC)c(OC)c3OC)CCN1C)N(C)CC2 (stereo not shown) [Compound 4g E1, 1,3-bis[1-(6,7,8-trimethoxy-2-methyl-1,2,3,4-tetrahydroisoquinolyl)]-propane hydrochloride]
- Ki (listed as 4g E1, hydrochloride): 1740 ± 195 nM

SMILES: COc1cc2c(c(OC)c1OC)C(CCCC1c3c(cc(OC)c(OC)c3OC)CCN1C)N(C)CC2 (stereo not shown) [Compound 4g E2, 1,3-bis[1-(6,7,8-trimethoxy-2-methyl-1,2,3,4-tetrahydroisoquinolyl)]-propane hydrochloride]
- Ki (listed as 4g E2, hydrochloride): 1100 ± 103 nM

SMILES: COc1cc2c(c(OC)c1OC)[C@@H](CCC[C@H]1c3c(cc(OC)c(OC)c3OC)CCN1C)N(C)CC2 [Compound 4g MESO, 1,3-bis[1-(6,7,8-trimethoxy-2-methyl-1,2,3,4-tetrahydroisoquinolyl)]-propane hydrochloride]
- Ki: 1670 ± 77 nM

SMILES: COc1cc2c(c(OC)c1OC)C(CCCC1c3c(cc(OC)c(OC)c3OC)CCN1C)N(C)CC2.Cl (stereo not shown) [Compound 4g, 1,3-bis[1-(6,7,8-trimethoxy-2-methyl-1,2,3,4-tetrahydroisoquinolyl)]-propane hydrochloride]
- % of 125I-apamin displaced at 10 μM: 70%

SMILES: COc1cc2c(c(OC)c1OC)C(CCCCC1c3c(cc(OC)c(OC)c3OC)CCN1C)N(C)CC2 (stereo not shown) [Compound 4h E1, 1,4-bis[1-(6,7,8-trimethoxy-2-methyl-1,2,3,4-tetrahydroisoquinolyl)]-butane hydrochloride]
- Ki (listed as 4h E1, hydrochloride): 2210 ± 156 nM

SMILES: COc1cc2c(c(OC)c1OC)C(CCCCC1c3c(cc(OC)c(OC)c3OC)CCN1C)N(C)CC2 (stereo not shown) [Compound 4h E2, 1,4-bis[1-(6,7,8-trimethoxy-2-methyl-1,2,3,4-tetrahydroisoquinolyl)]-butane hydrochloride]
- Ki (listed as 4h E2, hydrochloride): 746 ± 136 nM

SMILES: COc1cc2c(c(OC)c1OC)C(CCCCC1c3c(cc(OC)c(OC)c3OC)CCN1C)N(C)CC2.Cl (stereo not drawn) [Compound 4h MESO, 1,4-bis[1-(6,7,8-trimethoxy-2-methyl-1,2,3,4-tetrahydroisoquinolyl)]-butane hydrochloride]
- Ki / potential to interact with apamin-sensitive sites compared with NML: Ki superior to NML
- Ki (listed as 4h MESO, hydrochloride): 424 ± 33 nM

SMILES: COc1cc2c(c(OC)c1OC)C(CCCCC1c3c(cc(OC)c(OC)c3OC)CCN1C)N(C)CC2.Cl (stereo not shown) [Compound 4h, 1,4-bis[1-(6,7,8-trimethoxy-2-methyl-1,2,3,4-tetrahydroisoquinolyl)]-butane hydrochloride]
- % of 125I-apamin displaced at 10 μM: 86%

SMILES: COc1cc2c(cc1OC)C(Cc1cccc(CC3c4cc(OC)c(OC)cc4CCN3C)c1)N(C)CC2 (stereo not shown) [Compound 4m E1]
- Ki (listed as 4m E1): 1280 ± 55 nM

SMILES: COc1cc2c(cc1OC)C(Cc1cccc(CC3c4cc(OC)c(OC)cc4CCN3C)c1)N(C)CC2 (stereo not shown) [Compound 4m E2]
- Ki (listed as 4m E2): 1020 ± 27 nM

SMILES: COc1cc2c(cc1OC)C(Cc1ccc(CC3c4cc(OC)c(OC)cc4CCN3C)cc1)N(C)CC2 (stereo not shown) [Compound 4n E1]
- Ki (listed as 4n E1): 1010 ± 144 nM

SMILES: COc1cc2c(cc1OC)C(Cc1ccc(CC3c4cc(OC)c(OC)cc4CCN3C)cc1)N(C)CC2 (stereo not shown) [Compound 4n E2]
- Ki (listed as 4n E2): 1120 ± 46 nM

SMILES: COc1cc2c(cc1OC)[C@@H](Cc1ccc(C[C@H]3c4cc(OC)c(OC)cc4CCN3C)cc1)N(C)CC2 [Compound 4n MESO]
- Ki: 566 ± 26 nM

SMILES: COc1cc2c(cc1OC)C(Cc1ccc(CC3c4cc(OC)c(OC)cc4CCN3C)cc1)N(C)CC2 (stereo not shown) [Compound 4o, p-bis[1-(6,7-dimethoxy-2-methyl-1,2,3,4-tetrahydroisoquinolyl)]-xylene]
- % of 125I-apamin displaced at 10 μM: 90%
